Records with an inconclusive call do not appear. The source made the active and inactive calls.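 The calls were made as follows: active = Compounds that reduce signal, with fitted half-maximal dose at or under twice the top valid tested dose; inconclusive = Poor fit, or flat curve losing 30 to 70% of signal; inactive = Potency past limit, flat within 30%, or opposite direction.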
Test: HEK293T cell cytotoxicity, dose response, cytotoxicity control, ATP luminescence, cherry-pick samples (AID 687005)
Conditions: HEK293T viability, ATP luminescence (CellTiter-Glo), 48 h; at 23.5 µM (top of the series)

| SMILES | activity change, negative = cytotoxicity |
| --- | --- |
| N#Cc1ccc(-c2ccc3c(c2)[C@H]2[C@H](CCN2C(=O)Cc2ccccc2)[C@@H](CO)N3)cc1 | -73.4% (inactive) |
| O=C(C[C@H]1C[C@H]2c3cc(NC(=O)C4CCC4)ccc3O[C@H]2[C@@H](CO)O1)NCc1cccc(F)c1 | -5.36% (inactive) |
| CNC(=O)C[C@@H]1CC[C@@H]2[C@H](COc3ccc(NC(=O)c4cc(C)on4)cc3C(=O)N2C)O1 | 26.8% (inactive) |
| CC(C)NC(=O)Nc1ccc2c(c1)C(=O)N([C@@H](C)CO)C[C@@H](C)[C@@H](CN(C)C(=O)NC1CCCCC1)OCCCC[C@H](C)O2 | -7.35% (inactive) |
| CC(C)NC(=O)Nc1cccc2c1O[C@H](CN(C)C)[C@H](C)CN([C@H](C)CO)C2=O | 7.48% (inactive) |
| C[C@@H]1CCCCO[C@@H](CN(C)Cc2ccc(C(F)(F)F)cc2)[C@@H](C)CN([C@@H](C)CO)C(=O)c2cc(NS(=O)(=O)c3cn(C)cn3)ccc2O1 | -31.2% (inactive) |
| COC(=O)C1=C(C)N(Cc2ccccc2)C(=S)NC1c1ccc(Br)cc1 (stereo not drawn) | -9.89% (inactive) |
| C[C@@H]1CN([C@@H](C)CO)C(=O)c2cc(NC(=O)Nc3ccc4c(c3)OCO4)ccc2O[C@H]1CN(C)Cc1ccc(Oc2ccccc2)cc1 | -38.4% (inactive) |
| C[C@@H]1CN([C@H](C)CO)C(=O)c2cc(NC(=O)CCC(F)(F)F)ccc2O[C@@H](C)CCCCO[C@@H]1CN(C)C(=O)c1ccncc1 | -15.4% (inactive) |

Same assay, conditions: HEK293T viability, ATP luminescence (CellTiter-Glo), 48 h; at 26 µM (top of the series)

| SMILES | activity change, negative = cytotoxicity |
| --- | --- |
| N#C[C@H]1[C@@H](c2ccccc2)[C@@H](CO)N1C(=O)Cc1ccccc1 | -9.76% (inactive) |
| O=C(C[C@H]1CC[C@H]2[C@@H](COC[C@H](O)CN2Cc2cc(F)cc(F)c2)O1)Nc1nccs1 | 0.29% (inactive) |
| COc1ccccc1-c1ccc2c(c1)O[C@@H](CN(C)C(=O)c1cccnc1)[C@H](C)CN([C@@H](C)CO)S2(=O)=O | -38% (inactive) |
| Cc1noc(C)c1S(=O)(=O)N(C)C[C@@H]1Oc2c(NC(=O)c3cnccn3)cccc2C(=O)N([C@@H](C)CO)C[C@@H]1C | 6.5% (inactive) |
| CC(C)NC(=O)N(C)C[C@@H]1OCCCC[C@@H](C)Oc2ccc(NC(=O)c3ccccc3)cc2C(=O)N([C@H](C)CO)C[C@@H]1C | -7.94% (inactive) |
| O=C(NC1CCCC1)N1CCCCN2[C@H](CO)[C@@H](c3ccc(-c4cncnc4)cc3)[C@H]2C1 | 41.2% (inactive) |
| C[C@H](CO)N1C[C@H](C)[C@H](CN(C)C(=O)NC2CCCCC2)OCCCC[C@H](C)Oc2ccc(NC(=O)C3CCCCC3)cc2C1=O | 15% (inactive) |
| C[C@H](CO)N1C[C@H](C)[C@@H](CN(C)CC2CCOCC2)Oc2ncc(C#Cc3ccc(F)cc3)cc2C1=O | -11.1% (inactive) |
| O=C(C[C@H]1C[C@@H]2c3cc(NC(=O)CC4CC4)ccc3O[C@@H]2[C@@H](CO)O1)NCc1cccc(F)c1 | 35.8% (inactive) |
| CC(C)NC(=O)N(C)C[C@H]1Oc2c(NC(=O)C3CCCCC3)cccc2C(=O)N([C@H](C)CO)C[C@H]1C | 5.22% (inactive) |
| CC(C)NC(=O)Nc1ccc2c(c1)C(=O)N([C@@H](C)CO)C[C@H](C)[C@@H](CN(C)Cc1ccc3c(c1)OCO3)OCCCC[C@@H](C)O2 | -28.1% (inactive) |
| O=C([C@@H]1[C@@H](CO)[C@@H]2Cn3c(cccc3=O)[C@H]1N2Cc1cccc(Cl)c1)N1CCOCC1 | -9.53% (inactive) |
| COc1ccc(NC(=O)N(C)C[C@@H]2OCCCC[C@H](C)Oc3ccc(NC(=O)Nc4ccc5c(c4)OCO5)cc3C(=O)N([C@H](C)CO)C[C@@H]2C)cc1 | 4.66% (inactive) |
| COc1cccc(S(=O)(=O)Nc2ccc3c(c2)OC[C@H](C)NC[C@@H](C)[C@H](OC)CN(C)C3=O)c1 | -4.71% (inactive) |
| C/C=C/c1ccc2c(c1)O[C@H](CN(C)S(=O)(=O)c1ccccc1)[C@H](C)CN([C@@H](C)CO)S2(=O)=O | -8.59% (inactive) |
| CC(C)NC(=O)NCC[C@H]1CC[C@H](NC(=O)CN(C)C)[C@H](CO)O1 | 7.79% (inactive) |
| COc1ccc(NC(=O)N(C)C[C@H]2OCc3ccccc3-c3c(n(C)c4ccccc34)C(=O)N([C@H](C)CO)C[C@@H]2C)cc1 | -4.07% (inactive) |
| CCC(=O)N(C)C[C@H]1Oc2cc(C#CC(C)(C)O)ccc2S(=O)(=O)N([C@H](C)CO)C[C@@H]1C | 41.1% (inactive) |
| O=C(C[C@H]1CC[C@@H]2[C@H](COC[C@H](O)CN2CC2CCOCC2)O1)NCc1ccc(Cl)cc1 | 19% (inactive) |
| C[C@H](CO)N1C[C@H](C)[C@@H](CN(C)C(=O)Nc2ccc3c(c2)OCO3)Oc2ccc(NS(=O)(=O)c3cccs3)cc2C1=O | -1.88% (inactive) |
| COc1cc(C(=O)Oc2ccccc2N)cc(OC)c1OC | 1.38% (inactive) |
| O=C(C[C@@H]1C=C[C@@H](NC(=O)c2cccc(F)c2)[C@H](CO)O1)NCCN1CCCC1 | 20.8% (inactive) |
| CNC(=O)C[C@@H]1CC[C@H]2[C@@H](COC[C@H](O)CN2C(=O)Nc2ccc3c(c2)OCO3)O1 | -5.64% (inactive) |
| C[C@H]1CN([C@@H](C)CO)C(=O)CCCn2cc(nn2)CO[C@@H]1CN(C)Cc1ccc(C(F)(F)F)cc1 | -2.59% (inactive) |
| O=C(C[C@H]1C=C[C@H](NC(=O)C2CCC2)[C@@H](CO)O1)NC1CCC1 | -2.82% (inactive) |
| CO[C@H]1CN(C)C(=O)c2cc(NC(=O)C3CC3)ccc2OC[C@@H](C)N(Cc2cncnc2)C[C@H]1C | -23.3% (inactive) |

| SMILES | activity change, negative = cytotoxicity |
| --- | --- |
| CCCC(=O)Nc1ccc2c(c1)OC[C@@H](C)N(Cc1ccccn1)C[C@@H](C)[C@H](OC)CN(C)C2=O | 25.3% (inactive) |
| COCC(=O)N1C[C@H](C)[C@H](OC)CN(C)C(=O)c2ccc(NC(=O)NC(C)C)cc2OC[C@@H]1C | 37.2% (inactive) |
| COc1ccc(NC(=O)N(C)C[C@H]2OCCCC[C@@H](C)Oc3ccc(N(C)C)cc3C(=O)N([C@H](C)CO)C[C@H]2C)cc1 | -1% (inactive) |
| Cc1cc(C(=O)Nc2cccc3c2O[C@H](CN(C)S(=O)(=O)c2ccccc2)[C@H](C)CN([C@H](C)CO)C3=O)n(C)n1 | 16.8% (inactive) |
| O=C(C[C@@H]1CC[C@@H]2[C@H](COC[C@H](O)CN2Cc2cccc(C(F)(F)F)c2)O1)NCc1ccccc1 | 4.02% (inactive) |
| C[C@H](O)C#Cc1ccc2c(c1)O[C@H](CN(C)Cc1ccncc1)[C@H](C)CN([C@H](C)CO)S2(=O)=O | 29.2% (inactive) |
| COCC(=O)N(C)C[C@H]1Oc2ncc(-c3ccccc3F)cc2C(=O)N([C@@H](C)CO)C[C@H]1C | -32.3% (inactive) |
| COc1ccc(CNC(=O)C[C@H]2CC[C@H]3[C@@H](COc4ccc(NC(=O)C5CC5)cc4C(=O)N3C)O2)cc1 | 26% (inactive) |
| C/C=C/c1cnc2c(c1)C(=O)N([C@H](C)CO)C[C@@H](C)[C@@H](CN(C)C(=O)C1CCCCC1)O2 | 38.1% (inactive) |
| C[C@@H]1CN([C@H](C)CO)C(=O)c2c(c3ccccc3n2C)-c2ccccc2CO[C@H]1CN(C)S(=O)(=O)c1cccs1 | 1.01% (inactive) |
| O=C(C[C@H]1C[C@@H]2c3cc(NC(=O)c4cccnc4)ccc3O[C@@H]2[C@@H](CO)O1)NCCc1ccccc1 | -44.8% (inactive) |
| Cc1ccccc1S(=O)(=O)N[C@H]1CC[C@H](CCNS(=O)(=O)c2cccc(F)c2)O[C@H]1CO | -6.73% (inactive) |
| CCC(=O)N(C)C[C@@H]1Oc2cc(C#CC(C)(C)O)ccc2S(=O)(=O)N([C@H](C)CO)C[C@H]1C | -15.7% (inactive) |
| O=C(Cc1ccccc1)N[C@H]1C=C[C@@H](CC(=O)N2CCOCC2)O[C@H]1CO | 8.54% (inactive) |
| CN1C(=O)c2cc(NC(=O)NC3CCCC3)ccc2OC[C@H]2O[C@@H](CC(=O)NC3CCC3)CC[C@@H]21 | 0.295% (inactive) |
| COc1ccc(NC(=O)CSc2ncnc3c2cnn3CCc2ccccc2)cc1 | -33.3% (inactive) |
| COCC(=O)N1[C@H](C#N)[C@H](c2ccc(C#Cc3ccccc3F)cc2)[C@H]1CO | 8.29% (inactive) |
| Cc1noc(C)c1NC(=O)Nc1ccc2c(c1)C(=O)N([C@H](C)CO)C[C@H](C)[C@H](CN(C)CC1CCCCC1)O2 | 40.9% (inactive) |
| COC(=O)C1=C(C)N(Cc2ccccc2)C(=S)N[C@H]1c1cccc(C(F)(F)F)c1 | -25.6% (inactive) |
| C[C@H](NC(=O)C[C@@H]1C=C[C@H](NC(=O)CN2CCOCC2)[C@@H](CO)O1)c1ccccc1 | 18.6% (inactive) |
| CO[C@H]1CN(C)C(=O)c2ccc(NC(=O)C3CC3)cc2OC[C@@H](C)N(Cc2ccc(F)cc2)C[C@@H]1C | 37.9% (inactive) |
| CC(=O)c1cccc(NC(=S)NC2CCCCCCC2)c1 | -21.5% (inactive) |
| C/C=C/c1ccc([C@@H]2[C@@H](CO)N3CCCCN(C(=O)Nc4ccc(OC)cc4)C[C@H]23)cc1 | 48.4% (inactive) |
| O=C(c1cccc(F)c1)N1CCCCN2[C@@H](CO)[C@H](c3ccc(-c4ccncc4)cc3)[C@@H]2C1 | 2.55% (inactive) |
| COCCNC(=O)C[C@H]1C[C@@H]2c3cc(NC(=O)C4CCC4)ccc3O[C@@H]2[C@H](CO)O1 | 26.2% (inactive) |

Same assay, conditions: HEK293T viability, ATP luminescence (CellTiter-Glo), 48 h; at 30 µM (top of the series)

| SMILES | activity change, negative = cytotoxicity |
| --- | --- |
| CNC(=O)CN(c1ccc(C)cc1)S(=O)(=O)c1ccccc1 | -17.7% (inactive) |

Same assay, conditions: HEK293T viability, ATP luminescence (CellTiter-Glo), 48 h; at 35 µM (top of the series)

| SMILES | activity change, negative = cytotoxicity |
| --- | --- |
| O=C(NC(=S)NCC1COc2ccccc2O1)c1ccc(Cl)cc1 (stereo not drawn) | -9.32% (inactive) |

Same assay, conditions: HEK293T viability, ATP luminescence (CellTiter-Glo), 48 h; at 42 µM (top of the series)

| SMILES | activity change, negative = cytotoxicity |
| --- | --- |
| Cc1ccc(C)c(NC(=O)C2(C)CCCN2C(=O)C(C)C)c1 (stereo not drawn) | -23.6% (inactive) |

— PubChem BioAssay AID687005 (Broad Institute, 2013)
